Test results published in PMC4506092, “Utilizing Chemical Genomics to Identify Cytochrome b as a Novel Drug Target for Chagas Disease” (PLoS Pathogens, 2015).

Assay: Mammalian cell cytotoxicity assay (CellTiter-Glo)
Assay type: cell-based, mouse
Details: mouse; NIH/3T3, 96 hours; read-out: CC50, 3T3 cell line
Procedure: NIH/3T3 fibroblast cells were maintained in RPMI-1640 medium supplemented with 10% heat-inactivated FBS and 100 IU penicillin / 100 μg streptomycin per mL at 37°C / 5% CO2. For compound screening, cells were diluted to 4 × 10^4 cells / mL in assay medium (RPMI-1640, 5% FBS, and 100 IU penicillin / 100 μg streptomycin per mL) and seeded at 50 μL / well into 384-well plates. Following overnight incubation, compounds were added to each well (0.2% DMSO final concentration) and plates were further incubated for 96 hours. Cell viability was assessed using the CellTiter-Glo Luminescent Cell Viability Assay (Promega). Measured luminescence values were normalized to the value obtained for 0.2% DMSO, and plotted against the corresponding compound concentration for half maximal cytotoxic concentration (CC50) value determination.

## CCc1c(C)c(C#N)c2nc3ccccc3n2c1O [GNF7686]
  CC50: > 20 µM
